# From ChEMBL document CHEMBL3085687, “Gymnopalynes A and B, chloropropynyl-isocoumarin antibiotics from cultures of the basidiomycete Gymnopus sp” (J Nat Prod, 2013)
# Active and inactive are the calls of the source. No cut-off for these calls is given here.
# Tests used:
# [1] = system: Escherichia coli; assay: Antibacterial activity against Escherichia coli DSM 1116 assessed as growth inhibition up to 66.6 ug/mL; assay type: functional, organism-based
# [2] = system: Pseudomonas aeruginosa; assay: Antibacterial activity against Pseudomonas aeruginosa DSM 50071 assessed as growth inhibition up to 66.6 ug/mL; assay type: functional, organism-based
# [3] = system: Micrococcus luteus; assay: Antibacterial activity against Micrococcus luteus DSM 20030 assessed as growth inhibition up to 66.6 ug/mL; assay type: functional, organism-based; settings: NCTC 2665
# [4] = system: Staphylococcus aureus; assay: Antibacterial activity against Staphylococcus aureus DSM 346 assessed as growth inhibition up to 66.6 ug/mL; assay type: functional, organism-based
# [5] = system: Eremothecium coryli; assay: Antifungal activity against Nematospora coryli DSM 6981 assessed as growth inhibition up to 66.6 ug/mL; assay type: functional, organism-based
# [6] = system: Chromobacterium violaceum; assay: Antibacterial activity against Chromobacterium violaceum DSM 30191 assessed as growth inhibition; assay type: functional
# [7] = system: Mucor hiemalis; assay: Antifungal activity against Mucor hiemalis DSM 2656 assessed as growth inhibition; assay type: functional
# [8] = system: Schizosaccharomyces pombe; assay: Antifungal activity against Schizosaccharomyces pombe DSM 70572 assessed as growth inhibition up to 66.6 ug/mL; assay type: functional, organism-based
# [9] = system: Paenibacillus polymyxa; assay: Antibacterial activity against Paenibacillus polymyxa DSM 36 assessed as growth inhibition up to 66.6 ug/mL; assay type: functional
# [10] = system: Nocardia sp.; assay: Antibacterial activity against Nocardia sp. DSM 43069 assessed as growth inhibition up to 66.6 ug/mL; assay type: functional, organism-based
# [11] = system: L929; assay: Cytotoxicity against mouse L929 cells; assay type: cell-based
# [12] = system: Candida albicans; assay: Antifungal activity against Candida albicans DSM 1665 assessed as growth inhibition up to 66.6 ug/mL; assay type: functional, organism-based
# [13] = system: Rhodotorula glutinis; assay: Antifungal activity against Rhodotorula glutinis DSM 10134 assessed as growth inhibition up to 66.6 ug/mL; assay type: functional, organism-based
# [14] = Antifungal activity against Trichosporon oleaginosus DSM 11815 assessed as growth inhibition up to 66.6 ug/mL; assay type: functional; settings: Cutaneotrichosporon oleaginosum
# [15] = system: Amorphotheca resinae; assay: Antifungal activity against Hormoconis resinae DSM 1203 assessed as growth inhibition up to 66.6 ug/mL; assay type: functional, organism-based
# [16] = system: Wickerhamomyces anomalus; assay: Antifungal activity against Pichia anomala DSM 6766 assessed as growth inhibition up to 66.6 ug/mL; assay type: functional, organism-based
# [17] = system: Mycolicibacterium diernhoferi; assay: Antibacterial activity against Mycobacterium diernhoferi DSM 43524 assessed as growth inhibition up to 66.6 ug/mL; assay type: functional, organism-based
# [18] = system: Aspergillus clavatus; assay: Antifungal activity against Aspergillus clavatus DSM 816 assessed as growth inhibition up to 66.6 ug/mL; assay type: functional, organism-based
# [19] = system: Pimelobacter simplex; assay: Antibacterial activity against Nocardioides simplex DSM 20130 assessed as growth inhibition up to 66.6 ug/mL; assay type: functional
# [20] = Antifungal activity against Penicillium capsulatum DSM 2210 assessed as growth inhibition up to 66.6 ug/mL; assay type: functional
# [21] = system: Pseudomonas aeruginosa; assay: Antibacterial activity against Pseudomonas aeruginosa DSM 50071 assessed as growth inhibition; assay type: functional
# [22] = system: Pimelobacter simplex; assay: Antibacterial activity against Nocardioides simplex DSM 20130 assessed as growth inhibition; assay type: functional
# [23] = system: Eremothecium coryli; assay: Antifungal activity against Nematospora coryli DSM 6981 assessed as growth inhibition; assay type: functional
# [24] = Antifungal activity against Trichosporon oleaginosus DSM 11815 assessed as growth inhibition; assay type: functional; settings: Cutaneotrichosporon oleaginosum
# [25] = system: Aspergillus clavatus; assay: Antifungal activity against Aspergillus clavatus DSM 816 assessed as growth inhibition; assay type: functional
# [26] = system: Schizosaccharomyces pombe; assay: Antifungal activity against Schizosaccharomyces pombe DSM 70572 assessed as growth inhibition; assay type: functional
# [27] = system: Amorphotheca resinae; assay: Antifungal activity against Hormoconis resinae DSM 1203 assessed as growth inhibition; assay type: functional
# [28] = system: Nocardia sp.; assay: Antibacterial activity against Nocardia sp. DSM 43069 assessed as growth inhibition; assay type: functional
# [29] = system: Rhodotorula glutinis; assay: Antifungal activity against Rhodotorula glutinis DSM 10134 assessed as growth inhibition; assay type: functional
# [30] = system: Escherichia coli; assay: Antibacterial activity against Escherichia coli DSM 1116 assessed as growth inhibition; assay type: functional
# [31] = system: Paenibacillus polymyxa; assay: Antibacterial activity against Paenibacillus polymyxa DSM 36 assessed as growth inhibition; assay type: functional
# [32] = system: Mycolicibacterium diernhoferi; assay: Antibacterial activity against Mycobacterium diernhoferi DSM 43524 assessed as growth inhibition; assay type: functional
# [33] = system: Micrococcus luteus; assay: Antibacterial activity against Micrococcus luteus DSM 20030 assessed as growth inhibition; assay type: functional; settings: NCTC 2665
# [34] = system: Staphylococcus aureus; assay: Antibacterial activity against Staphylococcus aureus DSM 346 assessed as growth inhibition; assay type: functional
# [35] = system: Candida albicans; assay: Antifungal activity against Candida albicans DSM 1665 assessed as growth inhibition; assay type: functional, organism-based
# [36] = Antifungal activity against Penicillium capsulatum DSM 2210 assessed as growth inhibition; assay type: functional
# [37] = system: Wickerhamomyces anomalus; assay: Antifungal activity against Pichia anomala DSM 6766 assessed as growth inhibition; assay type: functional, organism-based
Compound,growth inhibition (GI) [1],growth inhibition (GI) [3],growth inhibition (GI) [4],MIC [6] [µg/mL],MIC [7] [µg/mL],growth inhibition (GI) [9],IC50 [11] [µM],growth inhibition (GI) [12],growth inhibition (GI) [16],growth inhibition (GI) [17],growth inhibition (GI) [20],MIC [21] [µg/mL],MIC [22] [µg/mL],MIC [23] [µg/mL],MIC [24] [µg/mL],MIC [25] [µg/mL],MIC [26] [µg/mL],MIC [27] [µg/mL],MIC [28] [µg/mL],MIC [29] [µg/mL],also measured
O=C1O[C@H](C#CCCl)Cc2ccccc21,inactive,inactive,inactive,33.3,33.3,inactive,14,inactive,inactive,inactive,inactive,,,,,,,,,,growth inhibition (GI) [2]: inactive; growth inhibition (GI) [5]: inactive; growth inhibition (GI) [8]: inactive; growth inhibition (GI) [10]: inactive; growth inhibition (GI) [13]: inactive; growth inhibition (GI) [14]: inactive; growth inhibition (GI) [15]: inactive; growth inhibition (GI) [18]: inactive; growth inhibition (GI) [19]: inactive
GENTAMICIN,,,,,,,,,,,,67,,,,,,,,,
O=c1oc(C#CCCl)cc2ccccc12,inactive,inactive,inactive,33.3,16.6,inactive,3.7,inactive,inactive,inactive,inactive,67,33.3,16.6,33.3,16.6,16.6,33.3,67,33.3,
CN(C)[C@@H]1C(O)=C(C(N)=O)C(=O)[C@@]2(O)C(O)=C3C(=O)c4c(O)cccc4[C@@](C)(O)[C@H]3[C@H](O)[C@@H]12.Cl [OXYTETRACYCLINE HYDROCHLORIDE],,,,1,,,,,,,,,16.6,,,,,,0.25,,MIC [30]: 1 µg/mL; MIC [31]: 6.7 µg/mL; MIC [32]: ≤ 0.25 µg/mL; MIC [33]: 2.1 µg/mL; MIC [34]: ≤ 0.25 µg/mL
NYSTATIN,,,,,2.1,,,,,,,,,3.3,1,2.1,33.3,< 0.25,,0.52,MIC [35]: 4.2 µg/mL; MIC [36]: 16.6 µg/mL; MIC [37]: 4.2 µg/mL
